Measured values from patent US12410164B2, “Heterocyclic compounds and medical use thereof” (FONDAZIONE TELETHON, priority 2018, dated 2025).

target: F508del-CFTR (Homo sapiens, UniProt P13569, DEL508-508); assay: HS-YFP kinetic fluorescence (iodide quenching rate) assay in CFBE41o− cells; type: cell-based; parameters: expressed in transfected cells; host or cells: CFBE41o- cells with expression of F508del-CFTR and HS-YFP (generated as in Sondo et al. 2011); settings: Table 1; compound at 10 μM plus VX-809; (QRTOT − QRVX)/QRVX, HS-YFP assay
Sequence (P13569 with tags, fused parts or gaps DEL508-508): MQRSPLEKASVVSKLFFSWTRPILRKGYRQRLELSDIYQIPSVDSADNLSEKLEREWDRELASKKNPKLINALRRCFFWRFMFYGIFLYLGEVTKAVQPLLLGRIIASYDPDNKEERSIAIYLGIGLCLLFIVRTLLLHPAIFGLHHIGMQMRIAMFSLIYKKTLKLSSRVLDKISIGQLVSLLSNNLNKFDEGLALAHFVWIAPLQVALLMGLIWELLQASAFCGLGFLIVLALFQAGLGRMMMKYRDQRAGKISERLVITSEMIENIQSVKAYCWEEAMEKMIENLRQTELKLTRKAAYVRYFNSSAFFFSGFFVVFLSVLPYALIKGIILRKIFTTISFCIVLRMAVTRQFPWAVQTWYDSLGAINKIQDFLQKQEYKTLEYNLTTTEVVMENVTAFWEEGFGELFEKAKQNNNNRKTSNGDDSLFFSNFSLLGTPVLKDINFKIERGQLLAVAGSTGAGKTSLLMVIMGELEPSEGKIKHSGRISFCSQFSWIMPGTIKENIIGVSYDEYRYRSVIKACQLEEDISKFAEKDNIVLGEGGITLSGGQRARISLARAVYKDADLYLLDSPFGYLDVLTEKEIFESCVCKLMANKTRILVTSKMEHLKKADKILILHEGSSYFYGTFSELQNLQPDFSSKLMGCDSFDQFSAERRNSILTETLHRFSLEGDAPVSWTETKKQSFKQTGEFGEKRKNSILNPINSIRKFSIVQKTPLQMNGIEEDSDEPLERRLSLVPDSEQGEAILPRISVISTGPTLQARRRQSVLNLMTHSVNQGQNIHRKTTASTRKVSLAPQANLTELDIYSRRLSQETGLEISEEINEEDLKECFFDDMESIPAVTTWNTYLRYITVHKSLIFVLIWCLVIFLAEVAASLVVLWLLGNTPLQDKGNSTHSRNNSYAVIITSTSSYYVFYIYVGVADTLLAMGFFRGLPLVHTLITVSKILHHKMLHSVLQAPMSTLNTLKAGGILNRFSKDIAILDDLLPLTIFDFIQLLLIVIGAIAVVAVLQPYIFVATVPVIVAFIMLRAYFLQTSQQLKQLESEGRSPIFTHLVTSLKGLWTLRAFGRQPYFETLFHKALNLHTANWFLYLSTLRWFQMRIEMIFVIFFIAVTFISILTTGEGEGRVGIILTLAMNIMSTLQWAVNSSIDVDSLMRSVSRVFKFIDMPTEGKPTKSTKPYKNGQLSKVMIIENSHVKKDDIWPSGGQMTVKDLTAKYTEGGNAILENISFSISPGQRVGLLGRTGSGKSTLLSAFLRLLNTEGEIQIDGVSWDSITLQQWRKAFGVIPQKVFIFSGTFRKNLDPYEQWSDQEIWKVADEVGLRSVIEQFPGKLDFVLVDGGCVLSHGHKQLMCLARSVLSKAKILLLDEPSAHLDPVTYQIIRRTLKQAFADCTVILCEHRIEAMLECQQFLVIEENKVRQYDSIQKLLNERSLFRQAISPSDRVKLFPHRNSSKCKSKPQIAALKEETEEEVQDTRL
Experimental: CFBE41o- cells, with expression of F508del-CFTR and halogen-sensitive fluorescent protein, were generated as previously described (Sondo E, et al. Am J Physiol. 2011, 301, […]-[…]). For the test, the cells were seeded in 96-well microplates using a culture medium consisting of DMEM and Ham's F12 (1:1) supplemented with 10% foetal bovine serum. After 24 hours from seeding, the cells were treated for another 24 hours with the test compounds dissolved in the culture medium at the desired concentrations. As a negative control, the solvent of the compounds (dimethyl sulfoxide, DMSO) dissolved in the medium with the same dilution ratio (final percentage of DMSO:0.1-0.2%) was used. As a positive control, the corrector VX-809 (Selleck Chemicals, […]) was used at a concentration of 1 μM. After treatment, the medium with the compounds was removed and the cells were stimulated with forskolin (Sigma-Aldrich, F6886) 20 μM plus genistein (Sigma-Aldrich, G6649) 50 μM (in 60 μl of PBS saline) to maximally activate the CFTR channels present in the membrane. In a microplate reader (FLUOstar-Omega, BMG) the fluorescence of the cells in each well was read for 14 seconds, with an injection of 165 μl of a iodide-enriched saline (modified PBS where NaCl, 137 mM, has been replaced with the same concentration of NaI). The iodide transport activity in each well was evaluated by subtraction of the background fluorescence (measured in a well without cells), subsequent normalization with respect to the initial fluorescence and finally by interpolation of the fluorescence quenching phase with an exponential function that allows the derivation of the maximum slope (quenching rate, QR). The activity of the synthesized compounds was initially evaluated on the CFBE41o- cell line with expression of the mutated F508del-CFTR protein described above (Sondo E, et al. Am J Physiol. 2011, 301, […]-[…]). For this purpose, a functional assay based on the fluorescent YFP protein sensitive to halides, HS-YFP, was used (Galietta L J, et al. J Biol Chem. 2001, 276, 19723-19728). The fluorescence of the HS-YFP protein is turned off by iodide. Therefore, if exposed to a solution containing iodide, cells with HS-YFP expression show a quenching speed of the fluorescence which depends on the presence and activity of anionic channels. Under control conditions, the mutated CFTR protein presents a serious defect of stability and maturation, so it remains trapped in the endoplasmic reticulum not reaching the cell surface in enough quantity. In the HS-YFP-based assay, this defect results in a low anion transport capacity and therefore in a low quenching rate (QR). Treatment for a prolonged time (e.g. 24 hours) with a corrector determines an improvement in protein maturation with an increase in the number of CFTR channels present in the membrane and therefore an increase in the flux of iodide and QR. In a first phase, the authors screened about 200 heterocyclic molecules with various nitrogenated tricyclic scaffolds. Conditions previously described have been used for screening (Sondo E, et al. Am J Physiol. 2011, 301, […]-[…]) and reported herein in the Materials and Methods section. A threshold equal to the average value plus three times the standard deviation of the QR of wells without compounds (only DMSO in the culture medium) was used as a criterion for the selection of active compounds.

For `COC(=O)c1cc2c(n1Cc1ccccc1C)-c1[nH]c(=O)c(S(=O)(=O)c3ccccc3)cc1CC2` [PP020, Methyl 1-(2-methylbenzyl)-8-oxo-7-(phenylsulfonyl)-4,5,8,9-tetrahydro-1H-pyrrolo[3,2-h]quinoline-2-carboxylate], which “AI (%) additivity index” value is on record?
Its value is 33%.

How did the “AI (%) additivity index” value turn out when `CCOC(=O)c1c(Br)c2c(n1Cc1cccc(C)c1)-c1[nH]c(=O)c(S(=O)(=O)c3ccc(Cl)cc3)cc1CC2` [PP030, Ethyl 3-bromo-7-[(4-chlorophenyl)sulfonyl]-1-(3-methylbenzyl)-8-oxo-4,5,8,9-tetrahydro-1H-pyrrolo[3,2-h]quinoline-2-carboxylate] was run?
The value was 96%.

For `CCOC(=O)c1c(Br)c2c(n1Cc1ccc(C)cc1)-c1[nH]c(=O)c(S(=O)(=O)c3ccc(C)cc3)cc1CC2` [PP035, Ethyl 3-bromo-7-(4-methylbenzene-1-sulfonyl)-1-[(4-methylphenyl)methyl]-8-oxo-4,5,8,9-tetrahydro-1H-pyrrolo[3,2-h]quinoline-2-carboxylate], which “AI (%) additivity index” value is on record?
The value was 56%.

`CCOC(=O)c1c(Br)c2c(n1Cc1c(C)cc(C)cc1C)-c1[nH]c(=O)c(S(=O)(=O)c3ccccc3)cc1CC2` [PP069, Ethyl 7-(benzenesulfonyl)-3-bromo-8-oxo-1-[(2,4,6-trimethylphenyl)methyl]-4,5,8,9-tetrahydro-1H-pyrrolo[3,2-h]quinoline-2-carboxylate] was tested. Which “AI (%) additivity index” value did it give?
Its value is 175%.

With `CC(C)NC(=O)c1cc2c(n1Cc1ccc(Br)cc1)-c1[nH]c(=O)c(S(=O)(=O)c3ccccc3)cc1CC2` [PP096, 7-(Benzenesulfonyl)-1-[(4-bromophenyl)methyl]-8-oxo-N-(propan-2-yl)-4,5,8,9-tetrahydro-1H-pyrrolo[3,2-h]quinoline-2-carboxamide] as the compound, how does the “AI (%) additivity index” value read?
Its value is 3%.

For `CC(C)OC(=O)c1c(Br)c2c(n1Cc1ccc(F)cc1)-c1[nH]c(=O)c(S(=O)(=O)c3ccccc3)cc1CC2` [PP108, Propan-2-yl 7-(benzenesulfonyl)-3-bromo-1-[(4-fluorophenyl)methyl]-8-oxo-4,5,8,9-tetrahydro-1H-pyrrolo[3,2-h]quinoline-2-carboxylate], which “AI (%) additivity index” value is on record?
Its value is 257%.

`Cc1cccc(Cn2c(C(=O)O)c(Br)c3c2-c2[nH]c(=O)c(S(=O)(=O)c4ccccc4)cc2CC3)c1` [PP081, 7-(Benzenesulfonyl)-3-bromo-1-[(3-methylphenyl)methyl]-8-oxo-4,5,8,9-tetrahydro-1H-pyrrolo[3,2-h]quinoline-2-carboxylic acid] was tested. Which “AI (%) additivity index” value did it give?
Its value is 20%.

Which “AI (%) additivity index” value does the source give for `Cc1cccc(Cn2c(C(=O)NC(C)(C)C)c(Br)c3c2-c2[nH]c(=O)c(S(=O)(=O)c4ccccc4)cc2CC3)c1` [PP101, 7-(Benzenesulfonyl)-3-bromo-N-tert-butyl-1-[(3-methylphenyl)methyl]-8-oxo-4,5,8,9-tetrahydro-1H-pyrrolo[3,2-h]quinoline-2-carboxamide] here?
The value was 249%.

With `CCOC(=O)c1cc2c(n1Cc1cccc(C)c1)-c1[nH]c(=O)c(S(=O)(=O)c3ccccc3)cc1CC2` [PP016, Ethyl 1-(3-methylbenzyl)-8-oxo-7-(phenylsulfonyl)-4,5,8,9-tetrahydro-1H-pyrrolo[3,2-h]quinoline-2-carboxylate] as the compound, how does the “AI (%) additivity index” value read?
Its value is 42%.

With `Cc1cccc(Cn2c(C(=O)Nc3cc(C(C)(C)C)on3)c(Br)c3c2-c2[nH]c(=O)c(S(=O)(=O)c4ccccc4)cc2CC3)c1` [PP102, 7-(Benzenesulfonyl)-3-bromo-N-(5-tert-butyl-1,2-oxazol-3-yl)-1-[(3-methylphenyl)methyl]-8-oxo-4,5,8,9-tetrahydro-1H-pyrrolo[3,2-h]quinoline-2-carboxamide] as the compound, how does the “AI (%) additivity index” value read?
Its value is 103%.

For `Cc1cccc(Cn2c(C(N)=O)cc3c2-c2[nH]c(=O)c(S(=O)(=O)c4ccccc4)cc2CC3)c1` [PP082, 7-(Benzenesulfonyl)-1-[(3-methylphenyl)methyl]-8-oxo-4,5,8,9-tetrahydro-1H-pyrrolo[3,2-h]quinoline-2-carboxamide], which “AI (%) additivity index” value is on record?
Its value is 31%.

`CCOC(=O)c1cc2c(n1Cc1ccc(C)c(C)c1)-c1[nH]c(=O)c(S(=O)(=O)c3ccccc3)cc1CC2` [PP025, Ethyl 7-(benzenesulfonyl)-1-[(3,4-dimethylphenyl)methyl]-8-oxo-4,5,8,9-tetrahydro-1H-pyrrolo[3,2-h]quinoline-2-carboxylate] was tested. Which “AI (%) additivity index” value did it give?
Its value is 178%.

With `CCOC(=O)c1cc2c(n1Cc1ccc(I)cc1)-c1[nH]c(=O)c(S(=O)(=O)c3ccccc3)cc1CC2` [PP062, Ethyl 7-(benzenesulfonyl)-1-[(4-iodophenyl)methyl]-8-oxo-4,5,8,9-tetrahydro-1H-pyrrolo[3,2-h]quinoline-2-carboxylate] as the compound, how does the “AI (%) additivity index” value read?
Its value is 95%.

`COC(=O)c1c(Br)c2c(n1Cc1ccccc1C)-c1[nH]c(=O)c(S(=O)(=O)c3ccccc3)cc1CC2` [PP032, Methyl 3-bromo-1-(2-methylbenzyl)-8-oxo-7-(phenylsulfonyl)-4,5,8,9-tetrahydro-1H-pyrrolo[3,2-h]quinoline-2-carboxylate] was tested. Which “AI (%) additivity index” value did it give?
The value was 133%.

same assay, conditions: Table 3; compound at 10 μM plus VX-809; (QRTOT-QRVX)/QRVX

Which AI additivity index does the source give for `CCOC(=O)c1cc2c(n1Cc1ccc(Br)cc1)-c1nc(NS(=O)(=O)c3ccccc3)ncc1CC2` [SVQ15, Ethyl 2-[(benzenesulfonyl)amino]-9-[(4-bromophenyl)methyl]-6,9-dihydro-5H-pyrrolo[3,2-h]quinazoline-8-carboxylate] here?
The AI additivity index was 100%.

With `CCOC(=O)c1c(Br)c2c(n1Cc1ccc(C)c(C)c1)-c1nc(NS(=O)(=O)c3ccccc3)ncc1CC2` [SVQ14, Ethyl 2-[(benzenesulfonyl)amino]-7-bromo-9-[(3,4-dimethylphenyl)methyl]-6,9-dihydro-5H-pyrrolo[3,2-h]quinazoline-8-carboxylate] as the compound, how does the AI additivity index read?
The AI additivity index was 128%.

For `CCOC(=O)c1c(Br)c2c(n1Cc1cccc(C)c1)-c1nc(NS(=O)(=O)c3ccccc3)ncc1CC2` [SVQ12, Ethyl 2-[(benzenesulfonyl)amino]-7-bromo-9-[(3-methylphenyl)methyl]-6,9-dihydro-5H-pyrrolo[3,2-h]quinazoline-8-carboxylate], which AI additivity index is on record?
The AI additivity index was 152%.

How did the AI additivity index turn out when `CCOC(=O)c1c(Br)c2c(n1Cc1cccc(C)c1)-c1nc(N)ncc1CC2` [SVQ4, Ethyl 2-amino-7-bromo-9-[(3-methylphenyl)methyl]-6,9-dihydro-5H-pyrrolo[3,2-h]quinazoline-8-carboxylate] was run?
The AI additivity index was 4%.

How did the AI additivity index turn out when `CCOC(=O)c1cc2c(n1Cc1ccc(C)c(C)c1)-c1nc(NS(=O)(=O)c3ccccc3)ncc1CC2` [SVQ13, Ethyl 2-[(benzenesulfonyl)amino]-9-[(3,4-dimethylphenyl)methyl]-6,9-dihydro-5H-pyrrolo[3,2-h]quinazoline-8-carboxylate] was run?
Its AI additivity index is 86%.

same assay, conditions: Table 4; compound at 10 μM plus VX-809; (QRTOT − QRVX)/QRVX

Which “AI (%) additivity index” value does the source give for `CCOC(=O)c1c(Br)cc2n1CCCc1cc(S(=O)(=O)c3ccccc3)c(=O)[nH]c1-2` [QZN6, Ethyl 3-(benzenesulfonyl)-10-bromo-2-oxo-1,5,6,7-tetrahydro-2H-pyrido[2,3-c]pyrrolo[1,2-a]azepine-9-carboxylate] here?
Its value is 136%.

same assay, conditions: Table 6; compound at 10 μM plus VX-809; (QRTOT-QRVX)/QRVX

`CCOC(=O)c1nn(Cc2ccc(C)cc2)c2c1CCc1cc(S(=O)(=O)c3ccccc3)c(=O)[nH]c1-2` [PZ1, Ethyl 7-(benzenesulfonyl)-1-[(4-methylphenyl)methyl]-8-oxo-4,5,8,9-tetrahydro-1H-pyrazolo[4,3-h]quinoline-3-carboxylate] was tested. Which “AI (%) additivity index” value did it give?
Its value is 88%.

`CCOC(=O)c1nn(Cc2ccc(C)c(C)c2)c2c1CCc1cc(S(=O)(=O)c3ccccc3)c(=O)[nH]c1-2` [PZ7, Ethyl 7-(benzenesulfonyl)-1-[(3,4-dimethylphenyl)methyl]-8-oxo-4,5,8,9-tetrahydro-1H-pyrazolo[4,3-h]quinoline-3-carboxylate] was tested. Which “AI (%) additivity index” value did it give?
Its value is 104%.
